Patent publication US10023563B2, “Cyclic compounds substituted by a condensed ring system” (BASF SE, priority 2014, dated 2018)

Assays:
Type in all cases: in vivo
[1] = tested on: Diamond Back Moth (Plutella xylostella); test: Diamond back moth leaf-dip test; details: cabbage leaves dipped, 3rd instar larvae, 72 hours after treatment, read-out: mortality in comparison with untreated controls
Method: B.1 Diamond Back Moth (Plutella xylostella)
The active compound was dissolved at the desired concentration in a mixture of 1:1 (vol:vol) distilled water:aceteone. Surfactant (Kinetic HV) was added at a rate of 0.01% (vol/vol). The test solution was prepared at the day of use.
Leaves of cabbage were dipped in test solution and air-dried. Treated leaves were placed in petri dishes lined with moist filter paper and inoculated with ten 3rd instar larvae. Mortality was recorded 72 hours after treatment. Feeding damages were also recorded using a scale of 0-100%.

[2] = tested on: Green Peach Aphid (Myzus persicae); test: Green peach aphid systemic test on artificial diet; details: 72 h, adult aphids on treated artificial diet, 3 days, read-out: mortality in comparison with untreated controls
From the text: B.2 Green Peach Aphid (Myzus persicae)
For evaluating control of green peach aphid (Myzus persicae) through systemic means the test unit consisted of 96-well-microtiter plates containing liquid artificial diet under an artificial membrane.
The compounds were formulated using a solution containing 75% v/v water and 25% v/v DMSO. Different concentrations of formulated compounds were pipetted into the aphid diet, using a custom built pipetter, at two replications.
After application, 5-8 adult aphids were placed on the artificial membrane inside the microtiter plate wells. The aphids were then allowed to suck on the treated aphid diet and incubated at about 23±1° C. and about 50±5% relative humidity for 3 days. Aphid mortality and fecundity was then visually assessed.

[3] = tested on: Vetch Aphid (Megoura viciae); test: Vetch aphid broad bean leaf disk test; details: foliar, 120 h, sprayed leaf disks, adult aphids, 5 days, read-out: mortality in comparison with untreated controls
Method: B.3 Vetch Aphid (Megoura viciae)
For evaluating control of vetch aphid (Megoura viciae) through contact or systemic means the test unit consisted of 24-well-microtiter plates containing broad bean leaf disks.
The compounds were formulated using a solution containing 75% v/v water and 25% v/v DMSO. Different concentrations of formulated compounds were sprayed onto the leaf disks at 2.5 μl, using a custom built micro atomizer, at two replications.
After application, the leaf disks were air-dried and 5-8 adult aphids placed on the leaf disks inside the microtiter plate wells. The aphids were then allowed to suck on the treated leaf disks and incubated at about 23±1° C. and about 50±5% relative humidity for 5 days. Aphid mortality and fecundity was then visually assessed.

[4] = tested on: Tobacco Budworm (Heliothis virescens); test: Tobacco budworm insect diet microtiter test; details: 120 h, egg and larval mortality on sprayed insect diet, 5 days, read-out: mortality in comparison with untreated controls
Method: B.4 Tobacco Budworm (Heliothis virescens)
For evaluating control of tobacco budworm (Heliothis virescens) the test unit consisted of 96-well-microtiter plates containing an insect diet and 15-25 H. virescens eggs.
The compounds were formulated using a solution containing 75% v/v water and 25% v/v DMSO. Different concentrations of formulated compounds were sprayed onto the insect diet at 10 μl, using a custom built micro atomizer, at two replications.
(§1) After application, microtiter plates were incubated at about 28±1° C. and about 80±5% relative humidity for 5 days. Egg and larval mortality was then visually assessed.

[5] = tested on: Boll Weevil (Anthonomus grandis); test: Boll weevil insect diet microtiter test; details: 120 h, egg and larval mortality on sprayed insect diet, 5 days, read-out: mortality in comparison with untreated controls
Method: B.5 Boll Weevil (Anthonomus grandis)
For evaluating control of boll weevil (Anthonomus grandis) the test unit consisted of 96-well-microtiter plates containing an insect diet and 5-10 A. grandis eggs.
(§2) The compounds were formulated using a solution containing 75% v/v water and 25% v/v DMSO. Different concentrations of formulated compounds were sprayed onto the insect diet at 5 μl, using a custom built micro atomizer, at two replications.
After application, microtiter plates were incubated at about 25±1° C. and about 75±5% relative humidity for 5 days. Egg and larval mortality was then visually assessed.

[6] = tested on: Mediterranean Fruitfly (Ceratitis capitata); test: Mediterranean fruitfly insect diet microtiter test; details: 120 h, egg and larval mortality on sprayed insect diet, 5 days, read-out: mortality in comparison with untreated controls
Method: B.6 Mediterranean Fruitfly (Ceratitis capitata)
as §2, with “For evaluating control of Mediterranean fruitfly (Ceratitis capitata) the test unit consisted of microtiter plates containing an insect diet and 50-80 C. capitata eggs. The” for “The”
as §1

[7] = tested on: Orchid Thrips (Dichromothrips Corbetti); test: Orchid thrips floral-immersion test; details: dipped orchid petals, adult thrips, 72 hours after treatment, read-out: mortality in comparison with untreated controls
Method: B.7 Orchid Thrips (Dichromothrips Corbetti)
Dichromothrips corbetti adults used for bioassay were obtained from a colony maintained continuously under laboratory conditions. For testing purposes, the test compound is diluted in a 1:1 mixture of acetone:water (vol:vol), plus Kinetic HV at a rate of 0.01% v/v.
Thrips potency of each compound was evaluated by using a floral-immersion technique. All petals of individual, intact orchid flowers were dipped into treatment solution and allowed to dry in Petri dishes. Treated petals were placed into individual resealable plastic along with about 20 adult thrips. All test arenas were held under continuous light and a temperature of about 28° C. for duration of the assay. After 3 days, the numbers of live thrips were counted on each petal. The percent mortality was recorded 72 hours after treatment.

[8] = tested on: Rice Green Leafhopper (Nephotettix virescens); test: Rice green leafhopper sprayed rice seedling test; details: sprayed potted rice seedlings, adults, after 72 hours, read-out: mortality in comparison with untreated controls
Method: B.8 Rice Green Leafhopper (Nephotettix virescens)
Rice seedlings were cleaned and washed 24 hours before spraying. The active compounds were formulated in 1:1 acetone:water (vol:vol), and 0.01% vol/vol surfactant (Kinetic HV) was added. Potted rice seedlings were sprayed with 5-6 ml test solution, air dried, covered with Mylar cages and inoculated with 10 adults. Treated rice plants were kept at about 28-29° C. and relative humidity of about 50-60%. Percent mortality was recorded after 72 hours.

[9] = tested on: Southern Armyworm (Spodoptera eridania); test: Southern armyworm sprayed lima bean test; details: foliar, 96 h, sprayed lima bean foliage, larvae, 4 days after treatment, read-out: mortality in comparison with untreated controls
Method: B.10 Southern Armyworm (Spodoptera eridania)
The active compounds were formulated in cyclohexanone as a 10,000 ppm solution supplied in tubes. The tubes were inserted into an automated electrostatic sprayer equipped with an atomizing nozzle and they served as stock solutions for which lower dilutions were made in 50% acetone:50% water (v/v). A nonionic surfactant (Kinetic®) was included in the solution at a volume of 0.01% (v/v).
Lima bean plants (variety Sieva) were grown 2 plants to a pot and selected for treatment at the 1st true leaf stage. Test solutions were sprayed onto the foliage by an automated electrostatic plant sprayer equipped with an atomizing spray nozzle. The plants were dried in the sprayer fume hood and then removed from the sprayer. Each pot was placed into perforated plastic bags with a zip closure. About 10 to 11 armyworm larvae were placed into the bag and the bags zipped closed. Test plants were maintained in a growth room at about 25° C. and about 20-40% relative humidity for 4 days, avoiding direct exposure to fluorescent light (24 hour photoperiod) to prevent trapping of heat inside the bags. Mortality and reduced feeding were assessed 4 days after treatment, compared to untreated control plants.

O=C(CNC(=O)c1ccc(C2=CSC(c3cc(Cl)cc(Cl)c3)(C(F)(F)F)C2)c2c1CCC2)NCC(F)(F)F (stereo not drawn) [Compound 1-3, 7-[2-(3,5-Dichlorophenyl)-2-(trifluoromethyl)-3H-thiophen-4-yl]-N-[2-oxo-2-(2,2,2-trifluoroethylamino)ethyl]indane-4-carboxamide]
≥ 75%: mortality at 300 ppm [1] | mortality at 2500 ppm [2] | mortality at 2500 ppm [3] | mortality at 2500 ppm [4] | mortality at 2500 ppm [5] | mortality at 2500 ppm [6] | mortality at 300 ppm [7] | mortality at 2500 ppm [8] | mortality at 10 ppm [9]
